For the assay, the system named is Parkinson's disease patients in the OFF state. Briefly: Phase 2 study of pulmonary levodopa in PD patients: plasma levodopa concentration vs UPDRS. The class given is in vivo, human. Conditions: FIG. 8, plasma concentration vs UPDRS. Here is the method:
The twenty four PD (24) patients treated in this study underwent serial evaluations of L-dopa plasma levels, motor response, and safety at each visit. The patients were administered the study drug in the OFF state with the serial evaluations starting prior to dosing and continuing for up to 180 minutes post-dose. Motor function was measured using a tapping test, the Unified Parkinson's Disease Rating Scale Part III (UPDRS III), and subjective evaluation of “meaningful” ON and OFF. Safety parameters monitored included pulmonary function, clinical laboratory data, EGCs, and vital signs (blood pressure, heart rate, and orthostatic blood pressure). This study was designed to measure the time, magnitude, and durability of pulmonary levodopa's effect on motor function, to evaluate the safety and tolerability of pulmonary levodopa in Parkinson's disease patients.
In FIG. 8, patient's plasma levodopa concentrations are being compared to UPDRS scores. UPDRS is a standard test for Parkinson's disease patients to test their response to drug treatment and their disease progression. […] The different baseline levels of levodopa plasma relate to the fact that each patient has a different effective dose or effective concentration for the levodopa to have an effect on each patient. […]

In the case of `N[C@@H](Cc1ccc(O)c(O)c1)C(=O)O` [L-Dopa, levodopa], the “levodopa plasma concentration difference between being in the off state and in the on state” value was in the range of 200 to 400 ng/mL.

The values are drawn from patent US20170296498A1, “Rapid Relief of Motor Fluctuations in Parkinson's Disease” (Civitas Therapeutics, Inc., priority 2014, published 2017).
